Measured values: US20130109682A1, “CYCLIC ETHER COMPOUNDS USEFUL AS KINASE INHIBITORS” (NOVARTIS AG, priority 2010, published 2013)
Read-outs that look alike come from different tables or passages of the source.

Key:
FGFR3 kinase = FGFR3 kinase (Homo sapiens, UniProt P22607); experiment: FGFR3 kinase inhibition assay (LanthaScreen TR-FRET); type: biochemical
Protocol: FGFR3 Kinase Inhibition Assay
LanthaScreen™ is the detection of Time-Resolved Fluorescence Resonance Energy Transfer (TR-FRET) using lanthanide chelates to measure interactions between various binding partners. The application of TR-FRET to assay kinase activity was first described by Mathis (1995). A TR-FRET assay was used to measure FGFR3 kinase inhibitory activity. The assay panel was run on a Biomek FX liquid handling workstations. To the assay plates containing […] compound or control solutions, 4.5 μL of buffer A (50 mM TRIS-HCl pH 7.4, 2 mM DTT, 0.02% Tween 20, 0.02 mM Na3VO4, H2O nanpure) including a generic concentration of ATP (2 μM f.c.) was added per well, followed by 4.5 μL of buffer B (4 uM ATP in Buffer A) including a generic concentration of polyEAY (50 nM f.c.), FGFR3 kinase, and divalent cations. Final concentration of kinase and cations were: [FGFR3 kinase]=0.20 nM, [Mg]=3 mM, [Mn]=3 mM. After 1 hour of incubation the kinase reactions were stopped by the addition of 4.5 μL of stop solution D (50 mM EDTA, 20 mM TRIS-HCl pH 7.4, 0.04% NP-40) immediately followed by 4.5 μL of buffer A (50 mM TRIS-HCl pH 7.4, 2 mM DTT, 0.02% Tween 20, 0.02 mM Na3VO4, H2O nanpure) including the Tb-labeled P-20 antibody to give a total detection volume of 18 μL. After an incubation time of 45 min in the dark, the plates were transferred into the Pherastar fluorescence reader for counting. The effect of compound on the enzymatic activity was obtained from the linear progress curves and determined from one reading (end point measurement).

PIM1 = PIM1 (Homo sapiens, UniProt P11309); experiment: KinaseGlo Pim1 ATP depletion assay; type: biochemical
How it was run: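 2.5 nM PIM1 preincubated 15 min with compound and 40 μM BAD peptide in 50 mM HEPES pH 7.5, 5 mM MgCl2, 1 mM DTT, 0.05% BSA, 2.5% DMSO. The reaction was started with 20 μM ATP (final) and run to about 50% ATP depletion. Remaining ATP read by KinaseGlo Plus luminescence to give IC50.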

hERG = target: T1, hERG (Homo sapiens, UniProt Q12809); experiment: hERG binding assay ([3H] dofetilide displacement); settings: read-out: HERGdof IC50
T1 construct: host or cells: crude membrane suspension
How it was run: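 Displacement of 2.5 nM [3H]dofetilide from crude hERG membranes (ca. 15 μg protein) by filtration binding, 90 min at room temperature, 0.5% DMSO final. Non-specific binding defined with 25 μM terfenadine; compounds run as 9-point duplicate curves from 30 μM to 3 nM.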

Chain of FGFR3 kinase (P22607 23-806): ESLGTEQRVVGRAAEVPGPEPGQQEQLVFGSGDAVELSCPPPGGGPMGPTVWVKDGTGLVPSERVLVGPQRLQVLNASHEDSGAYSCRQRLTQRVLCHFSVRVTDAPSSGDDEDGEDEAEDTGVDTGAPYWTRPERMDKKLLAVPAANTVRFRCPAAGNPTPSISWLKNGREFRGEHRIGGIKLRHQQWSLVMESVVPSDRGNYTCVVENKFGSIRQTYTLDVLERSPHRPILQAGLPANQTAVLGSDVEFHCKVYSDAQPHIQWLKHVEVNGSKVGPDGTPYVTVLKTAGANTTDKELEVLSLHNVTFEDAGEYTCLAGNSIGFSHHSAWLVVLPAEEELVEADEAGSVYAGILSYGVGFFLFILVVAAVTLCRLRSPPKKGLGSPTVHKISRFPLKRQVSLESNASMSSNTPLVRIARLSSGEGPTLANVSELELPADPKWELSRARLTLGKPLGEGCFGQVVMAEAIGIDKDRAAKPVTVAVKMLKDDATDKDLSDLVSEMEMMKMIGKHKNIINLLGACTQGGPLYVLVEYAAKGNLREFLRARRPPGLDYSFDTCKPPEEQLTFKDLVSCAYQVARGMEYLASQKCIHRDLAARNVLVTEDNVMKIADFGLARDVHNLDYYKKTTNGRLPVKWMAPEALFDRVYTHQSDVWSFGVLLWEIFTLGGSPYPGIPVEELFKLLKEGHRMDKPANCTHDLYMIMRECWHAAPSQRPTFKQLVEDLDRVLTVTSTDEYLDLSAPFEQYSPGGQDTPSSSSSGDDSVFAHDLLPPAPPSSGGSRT
T1 sequence (Q12809 whole entry): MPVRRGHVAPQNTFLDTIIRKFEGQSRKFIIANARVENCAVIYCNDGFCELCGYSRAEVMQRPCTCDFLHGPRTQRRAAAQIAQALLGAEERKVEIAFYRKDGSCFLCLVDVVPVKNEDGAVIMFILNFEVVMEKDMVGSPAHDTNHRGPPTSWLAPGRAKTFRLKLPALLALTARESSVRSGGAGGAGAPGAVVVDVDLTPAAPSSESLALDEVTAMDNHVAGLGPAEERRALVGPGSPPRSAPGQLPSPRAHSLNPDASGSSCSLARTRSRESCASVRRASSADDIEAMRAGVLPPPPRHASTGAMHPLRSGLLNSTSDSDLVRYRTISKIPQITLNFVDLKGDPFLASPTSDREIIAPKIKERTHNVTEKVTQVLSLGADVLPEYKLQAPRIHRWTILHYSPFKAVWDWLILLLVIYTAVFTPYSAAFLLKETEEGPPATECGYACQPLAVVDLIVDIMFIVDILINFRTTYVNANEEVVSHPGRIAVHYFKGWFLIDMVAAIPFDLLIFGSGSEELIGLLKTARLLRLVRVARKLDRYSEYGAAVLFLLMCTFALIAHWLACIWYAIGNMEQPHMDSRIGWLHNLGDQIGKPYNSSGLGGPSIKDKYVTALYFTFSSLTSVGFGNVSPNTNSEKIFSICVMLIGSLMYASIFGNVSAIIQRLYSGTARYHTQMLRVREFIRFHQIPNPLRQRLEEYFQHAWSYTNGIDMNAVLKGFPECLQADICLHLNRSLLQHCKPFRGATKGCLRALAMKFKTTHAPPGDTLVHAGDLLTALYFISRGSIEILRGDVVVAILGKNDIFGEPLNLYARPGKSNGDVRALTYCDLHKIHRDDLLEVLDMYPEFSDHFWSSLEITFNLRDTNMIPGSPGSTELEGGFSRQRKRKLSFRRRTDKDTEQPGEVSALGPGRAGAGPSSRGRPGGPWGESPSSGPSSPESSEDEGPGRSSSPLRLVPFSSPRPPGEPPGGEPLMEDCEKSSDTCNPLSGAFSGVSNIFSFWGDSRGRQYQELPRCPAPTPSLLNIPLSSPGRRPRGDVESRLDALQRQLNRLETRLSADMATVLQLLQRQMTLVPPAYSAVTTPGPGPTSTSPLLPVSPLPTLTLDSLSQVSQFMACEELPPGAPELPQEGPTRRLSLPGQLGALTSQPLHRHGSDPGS
Chain of PIM1 (P11309 whole entry): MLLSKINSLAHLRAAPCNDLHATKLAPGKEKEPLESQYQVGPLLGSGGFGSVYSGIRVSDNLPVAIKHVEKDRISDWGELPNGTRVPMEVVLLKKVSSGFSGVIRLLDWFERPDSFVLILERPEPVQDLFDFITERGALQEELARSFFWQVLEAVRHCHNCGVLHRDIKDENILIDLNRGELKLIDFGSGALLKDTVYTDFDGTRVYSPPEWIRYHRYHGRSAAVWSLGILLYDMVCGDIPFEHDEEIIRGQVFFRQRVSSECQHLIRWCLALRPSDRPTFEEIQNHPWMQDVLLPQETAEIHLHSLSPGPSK

| SMILES | IC50 (FGFR3 kinase) [µM] | IC50 (PIM1) [µM] | IC50 (hERG; dofetilide displacement) [µM] | IC50 (hERG; hERG binding, dofetilide) [µM] |
| --- | --- | --- | --- | --- |
| CC[C@]1(O)[C@H](O)C[C@H](c2ccncc2NC(=O)c2nc(-c3c(F)cccc3F)ncc2N)O[C@@H]1C [Example 143, 5-amino-2-(2,6-difluorophenyl)-N-(4-((2R,4R,5S,6R)-5-ethyl-4,5-dihydroxy-6-methyltetrahydro-2H-pyran-2-yl)pyridin-3-yl)pyrimidine-4-carboxamide] | > 10 | 0.0013 | > 30 |  |
| Nc1ncc(-c2ccccc2)nc1C(=O)Nc1cnccc1[C@H]1C[C@@H](O)[C@@]2(O)CCCC[C@H]2O1 [Example 173, 3-amino-N-(4-((2R,4R,4aS,8aR)-4,4a-dihydroxyoctahydro-2H-chromen-2-yl)pyridin-3-yl)-6-phenylpyrazine-2-carboxamide] | 0.045 | 0.0022 | > 30 |  |
| Nc1ncc(-c2ccccc2)nc1C(=O)Nc1cnccc1[C@@H]1C[C@H](O)[C@]2(O)CCCC[C@@H]2O1 [Example 176, 3-amino-N-(4-((2S,4S,4aR,8aS)-4,4a-dihydroxyoctahydro-2H-chromen-2-yl)pyridin-3-yl)-6-phenylpyrazine-2-carboxamide] | 8 | 0.0638 | > 30 |  |
| O=C(Nc1cnccc1[C@H]1C[C@@H](O)[C@@]2(O)CCCC[C@H]2O1)c1c[nH]cc(-c2ccccc2)c1=O [Example 178, N-(4-((2R,4R,4aS,8aR)-4,4a-dihydroxyoctahydro-2H-chromen-2-yl)pyridin-3-yl)-4-oxo-5-phenyl-1,4-dihydropyridine-3-carboxamide] | > 10 | 0.154 | > 30 |  |
| Nc1ncc(-c2ccccc2)nc1C(=O)Nc1cnccc1[C@@H]1C[C@H](O)[C@]2(O)CCC[C@@H]2O1 [Example 186, 3-amino-N-(4-((2S,4S,4aR,7aS)-4,4a-dihydroxyoctahydrocyclopenta[b]pyran-2-yl)pyridin-3-yl)-6-phenylpyrazine-2-carboxamide] | 3.7 | 0.159 | > 30 |  |
| N[C@@H]1C[C@H](c2ccncc2NC(=O)c2ccc(F)c(-c3c(F)cccc3F)n2)O[C@@H]2CCC[C@]12O [Example 210, N-(4-((2R,4R,4aS,7aR)-4-amino-4a-hydroxyoctahydrocyclopenta[b]pyran-2-yl)pyridin-3-yl)-6-(2,6-difluorophenyl)-5-fluoropicolinamide] | > 10 | 0.0005 | 10 |  |
| Nc1cnc(-c2c(F)cccc2F)nc1C(=O)Nc1cnccc1[C@H]1C[C@@H](N)[C@@]2(O)CCC[C@H]2O1 [Example 213, 5-amino-N-(4-((2R,4R,4aS,7aR)-4-amino-4a-hydroxyoctahydrocyclopenta[b]pyran-2-yl)pyridin-3-yl)-2-(2,6-difluorophenyl)pyrimidine-4-carboxamide] | > 10 | 0.0039 | > 30 |  |
| C[C@H]1O[C@@H](c2ccncc2NC(=O)c2ccc(F)c(-c3c(F)cccc3F)n2)C[C@@H](N)[C@]1(C)O [Example 219, N-(4-((2R,4R,5S,6R)-4-amino-5-hydroxy-5,6-dimethyltetrahydro-2H-pyran-2-yl)pyridin-3-yl)-6-(2,6-difluorophenyl)-5-fluoropicolinamide] | > 10 |  |  | 16 |
| N[C@@H]1C[C@H](c2ccncc2NC(=O)c2ccc(F)c(-c3c(F)cccc3F)n2)O[C@@H]2CCC[C@H]12 [Example 224, N-(4-((2R,4R,4aR,7aR)-4-aminooctahydrocyclopenta[b]pyran-2-yl)pyridin-3-yl)-6-(2,6-difluorophenyl)-5-fluoropicolinamide] | > 10 |  |  | 2 |
| N[C@H]1C[C@@H](c2ccncc2NC(=O)c2csc(-c3c(F)cccc3F)n2)O[C@H]2CCC[C@H]21 [Example 230, N-(4-((2S,4S,4aS,7aS)-4-aminooctahydrocyclopenta[b]pyran-2-yl)pyridin-3-yl)-2-(2,6-difluorophenyl)thiazole-4-carboxamide] | > 10 |  |  | 4 |
| COc1cc(F)c(-c2nc(C(=O)Nc3cnccc3[C@H]3C[C@@H](N)[C@](C)(O)[C@@H](C)O3)ccc2F)c(F)c1 [Example 242, N-(4-((2R,4R,5S,6R)-4-amino-5-hydroxy-5,6-dimethyltetrahydro-2H-pyran-2-yl)pyridin-3-yl)-6-(2,6-difluoro-4-methoxyphenyl)-5-fluoropicolinamide] | > 10 |  |  | 6 |
| CC1(C)C[C@@H](N)C[C@H](c2ccncc2NC(=O)c2nc(-c3ccccc3)cnc2N)O1 [Example 296, 3-amino-N-(4-((2R,4S)-4-amino-6,6-dimethyltetrahydro-2H-pyran-2-yl)pyridin-3-yl)-6-phenylpyrazine-2-carboxamide] | 0.2 |  |  |  |

Further lines, with some results ahead:

| IC50 (FGFR3 kinase) [µM] | IC50 (PIM1) [µM] | SMILES | IC50 (hERG; dofetilide displacement) [µM] | IC50 (hERG; hERG binding, dofetilide) [µM] |
| --- | --- | --- | --- | --- |
| 0.011 | 0.0022 | Nc1ncc(-c2ccccc2)nc1C(=O)Nc1cnccc1[C@H]1C[C@@H](O)[C@@]2(O)CCC[C@H]2O1 [Example 195, 3-amino-N-(4-((2R,4R,4aS,7aR)-4,4a-dihydroxyoctahydrocyclopenta[b]pyran-2-yl)pyridin-3-yl)-6-phenylpyrazine-2-carboxamide] | > 30 |  |
| > 10 | 0.0034 | O=C1CC[C@H]2O[C@@H](c3ccncc3NC(=O)c3ccc(F)c(-c4c(F)cccc4F)n3)C[C@@H](O)[C@@H]2N1 [Example 196, 6-(2,6-difluorophenyl)-5-fluoro-N-(4-((2R,4R,4aS,8aR)-4-hydroxy-6-oxooctahydro-2H-pyrano[3,2-b]pyridin-2-yl)pyridin-3-yl)picolinamide] | > 30 |  |
| > 10 |  | CC[C@]1(O)[C@H](N)C[C@H](c2ccncc2NC(=O)c2ccc(F)c(-c3c(F)cccc3F)n2)O[C@@H]1C [Example 232, N-(4-((2R,4R,5S,6R)-4-amino-5-ethyl-5-hydroxy-6-methyltetrahydro-2H-pyran-2-yl)pyridin-3-yl)-6-(2,6-difluorophenyl)-5-fluoropicolinamide] |  | 5 |
| > 10 |  | Nc1cc(F)c(-c2c(F)cccc2F)nc1C(=O)Nc1cnccc1[C@H]1C[C@@H](N)[C@@]2(O)CCCC[C@H]2O1 [Example 238, 3-amino-N-(4-((2R,4R,4aS,8aR)-4-amino-4a-hydroxyoctahydro-2H-chromen-2-yl)pyridin-3-yl)-6-(2,6-difluorophenyl)-5-fluoropicolinamide] |  | 4 |
| 1.6 |  | CC1(C)C[C@H](N)C[C@@H](c2ccncc2NC(=O)c2nc(-c3ccccc3)cnc2N)O1 [Example 297, 3-amino-N-(4-((2S,4R)-4-amino-6,6-dimethyltetrahydro-2H-pyran-2-yl)pyridin-3-yl)-6-phenylpyrazine-2-carboxamide] |  |  |
